Where a name gives a salt, the structure may show the parent alone.
assay: in vitro; settings: PAMPA, PAMPA-BBB Pe

Compared with `COc1ccc2[nH]c3c(c2c1)CCNC3C` (stereo not drawn) [ADRENOGLOMERULOTROPIN], `COc1cc2c(cc1OC)[C@@]13CCN4CC5=CCO[C@H]6CC(=O)N2[C@H]1[C@H]6[C@H]5C[C@H]43` [BRUCINUM] is lower in Papp: 230 nm/s for the first, 160 nm/s for the second.

Compound `CCOC(=O)c1ccc(N)cc1` [BENZOCAINE] has a Papp of 990 nm/s.

same assay, conditions: PAMPA, PAMPA-BBB Pe(10^-6 cm/sec)

`Cc1ncc(C[n+]2csc(CCO)c2C)c(N)n1` [THIAMINE MONONITRATE] and `CC[C@H](C)C(=O)O[C@H]1C[C@H](O)C=C2C=C[C@H](C)[C@H](CC[C@@H](O)C[C@@H](O)CC(=O)O)[C@H]21` [PRAVASTATIN SODIUM] cannot be ordered by Papp: less than 10 nm/s for the first, less than 10 nm/s for the second.

`O=C(O)c1cccnc1` [NICOTINIC ACID] and `Oc1ccc(O)cc1` [HYDROQUINONE] cannot be ordered by Papp: less than 10 nm/s for the first, less than 10 nm/s for the second.

Work on `CC1=C(/C=C/C(C)=C/C=C/C(C)=C\C(=O)O)C(C)(C)CCC1` [ISOTRETINOIN] yielded a Papp of 87 nm/s.

same assay, conditions: PAMPA, PAMPA-BBB Pe(10^-6 cm/sec), Table S3: compounds exhibiting low PAMPA-BBB permeability

First: c1cncc([C@@H]2CCCN2)c1 [NORNICOTINE]
Second: CC=C1C[N+]2(C)CC[C@@]34C(=C(C=O)[C@H]1C[C@@H]32)Nc1ccccc14 (stereo partly drawn) [METVINE]
The Papp of the first is higher: 84 nm/s for the first, less than 10 nm/s for the second.

`O=c1c(-c2ccc(O)cc2)coc2cc(O[C@@H]3O[C@H](CO)[C@@H](O)[C@H](O)[C@H]3O)ccc12` [DAIDZIN] and `O=c1c(-c2ccc(O)cc2)coc2c([C@@H]3O[C@H](CO)[C@@H](O)[C@H](O)[C@H]3O)c(O)ccc12` [PUERARIN] cannot be ordered by Papp: less than 10 nm/s for the first, less than 10 nm/s for the second.

First: COc1ccc2cc1Oc1ccc(cc1)C[C@H]1c3cc(c(OC)cc3CCN1C)Oc1c(OC)c(OC)c(OC)c3c1[C@H](C2)N(C)CC3 [HERNANDEZINE]
Second: COc1ccc2cc1Oc1ccc(cc1)C[C@H]1c3c(cc4c(c3Oc3cc5c(cc3OC)CCN(C)[C@@H]5C2)OCO4)CCN1C [CEPHARANTHINE]
The Papp of the first is higher: 97 nm/s for the first, less than 10 nm/s for the second.

Going from `COc1cc(/C=C/C(=O)O)ccc1O` [FERULIC ACID] to `COc1ccc(C(=O)O)cc1OC` [3,4-DIMETHOXYBENZOIC ACID], the Papp falls from 12 nm/s to less than 10 nm/s.

`CC1=C(O)C(=O)OC1C` (stereo not drawn) [SOTOLONE] and `C[C@@H]1NCCc2cc(O)c(O)cc21` [SALSOLINOL] cannot be ordered by Papp: less than 10 nm/s for the first, less than 10 nm/s for the second.

Compared with `O=C(/C=C/c1ccc(O)cc1)OC[C@H]1O[C@@H](Oc2c(-c3ccc(O)cc3)oc3cc(O)cc(O)c3c2=O)[C@H](O)[C@@H](O)[C@@H]1O` [TILIROSIDE], `O=c1c(O[C@@H]2O[C@H](CO)[C@H](O)[C@H](O)[C@H]2O)c(-c2ccc(O)c(O)c2)oc2cc(O)cc(O)c12` [HYPEROSIDE] is higher in Papp: less than 10 nm/s for the first, 16 nm/s for the second.

Compared with `O=C(O)[C@H]1O[C@@H](Oc2cc3oc(-c4ccccc4)cc(=O)c3c(O)c2O)[C@H](O)[C@@H](O)[C@@H]1O` [BAICALIN], `O=c1ccc2ccc(O[C@@H]3O[C@H](CO)[C@@H](O)[C@H](O)[C@H]3O)c(O)c2o1` [DAPHNIN] is lower in Papp: 13 nm/s for the first, less than 10 nm/s for the second.

`CNc1ncnc2c1ncn2C1OC(CO)C(O)C1O` (stereo not drawn) [N-METHYLADENOSINE] and `CC(C)=CCNc1ncnc2c1ncn2[C@@H]1O[C@H](CO)[C@@H](O)[C@H]1O` [RIBOPRINE] cannot be ordered by Papp: less than 10 nm/s for the first, less than 10 nm/s for the second.

First: CC(C=O)Cc1ccc(C(C)C)cc1 (stereo not drawn) [CYCLAMEN ALDEHYDE]
Second: CC(=O)CCc1ccc(O)cc1 [RASPBERRY KETONE]
The Papp of the first is higher: 82 nm/s for the first, 41 nm/s for the second.

`O=c1c(O)c(-c2cc(O)c(O)c(O)c2)oc2cc(O)cc(O)c12` [MYRICETIN] and `Oc1cc(O)c2c(c1)O[C@H](c1cc(O)c(O)c(O)c1)[C@@H](O)C2` [GALLOCATECHIN] cannot be ordered by Papp: less than 10 nm/s for the first, less than 10 nm/s for the second.

Compared with `O=c1cc(-c2ccc(O)cc2)oc2cc(O)ccc12` [K[…]], `O=C1C[C@@H](c2ccc(O[C@@H]3O[C@H](CO)[C@@H](O)[C@H](O)[C@H]3O)cc2)Oc2cc(O)ccc21` [LIQUIRITIN] is lower in Papp: 29 nm/s for the first, less than 10 nm/s for the second.

First: C[C@@H]1CC[C@@]2(OC1)O[C@H]1C[C@H]3[C@@H]4CC[C@H]5C[C@@H](O)CC[C@]5(C)[C@H]4CC(=O)[C@]3(C)[C@H]1[C@@H]2C [HECOGENIN]
Second: CC[C@H]1O[C@]2(CC[C@@H]1C)C[C@@H]1C[C@@H](CC=C(C)C[C@@H](C)C=CC=C3CO[C@@H]4[C@H](O)C(C)=C[C@@H](C(=O)O1)[C@]34O)O2 [MILBEMYCIN A4]
The Papp of the first is lower: less than 10 nm/s for the first, 99 nm/s for the second.

`C=C(NC(=O)C(=C)NC(=O)c1csc(C2=N[C@@H]3c4csc(n4)[C@H]4NC(=O)c5csc(n5)[C@H]([C@](C)(O)[C@@H](C)O)NC(=O)[C@H]5CSC(=N5)/C(=C/C)NC(=O)[C@H]([C@@H](C)O)NC(=O)c5csc(n5)[C@]3(CC2)NC(=O)[C@H](C)NC(=O)C(=C)NC(=O)[C@H](C)NC(=O)[C@H]([C@@H](C)CC)N[C@@H]2C=Cc3c([C@H](C)O)cc(nc3[C@H]2O)C(=O)O[C@@H]4C)n1)C(N)=O` [THIOSTREPTON] and `O=C(/C=C/c1ccc(O)c2c1[C@H](C(=O)O)[C@@H](c1ccc(O)c(O)c1)O2)O[C@H](Cc1ccc(O)c(O)c1)C(=O)O` [LITHOSPERMIC ACID A] cannot be ordered by Papp: less than 10 nm/s for the first, less than 10 nm/s for the second.

`CC(C)=CCC/C(C)=C/CC/C(C)=C/CO` [FARNESOL TRANS,TRANS-FARNESOL] and `CC1=C(/C=C/C(C)=C/C=C/C(C)=C/C=C/C=C(C)/C=C/C=C(\C)C=O)C(C)(C)CCC1` [APOCAROTENAL] cannot be ordered by Papp: less than 10 nm/s for the first, less than 10 nm/s for the second.

`Cc1cc(O)c(C=O)c2c1C(=O)Oc1c(COC(=O)/C=C/C(=O)O)c(O)c(C(=O)O)c(C)c1O2` [FUMARPRO[…]] and `Cc1cc(O)cc(O)c1C(=O)O` [[…]] cannot be ordered by Papp: less than 10 nm/s for the first, less than 10 nm/s for the second.

`Nc1nc2c(ncn2[C@@H]2O[C@H](COP(=O)(O)OP(=O)(O)O)[C@@H](O)[C@H]2O)c(=O)[nH]1` [Guanosine pyrophosphate] and `Nc1nc2c(ncn2[C@@H]2O[C@H](CO)[C@@H](O)[C@@H]2O)c(=O)[nH]1` [ARAGUANOSINE] cannot be ordered by Papp: less than 10 nm/s for the first, less than 10 nm/s for the second.

`COC(=O)C1=CO[C@@H](O[C@@H]2O[C@H](CO)[C@@H](O)[C@H](O)[C@H]2O)[C@@H]2[C@@H](C)[C@@H](O)C[C@H]12` [LOGANIN] and `COC(=O)C1=CO[C@@H](O[C@@H]2O[C@H](CO)[C@@H](O)[C@H](O)[C@H]2O)[C@H]2[C@@H]1C(=O)C[C@@H]2C` [VERBENALIN] cannot be ordered by Papp: less than 10 nm/s for the first, less than 10 nm/s for the second.

Going from `CC1=C(/C=C/C(C)=C/C=C/C(C)=C/C=C/C=C(C)/C=C/C=C(C)/C=C/C2=C(C)C[C@@H](O)CC2(C)C)C(C)(C)C[C@H](O)C1` [ZEAXANTHIN] to `CC1=C[C@H](O)CC(C)(C)[C@H]1/C=C/C(C)=C/C=C/C(C)=C/C=C/C=C(C)/C=C/C=C(C)/C=C/C1=C(C)C[C@@H](O)CC1(C)C` [XANTHOPHYLL], the Papp rises from 21 nm/s to 50 nm/s.

Going from `NCCC(=O)c1ccccc1N` [KYNURAMINE] to `COc1ccc2[nH]cc(CC(=O)O)c2c1` [5-METHOXYIN[…]], the Papp falls from 24 nm/s to less than 10 nm/s.

`COc1cccc2c1cc([N+](=O)[O-])c1c(C(=O)O)cc3c(c12)OCO3` [ARISTOLOCHIC ACID] and `COc1cc(C[C@@H](CO)[C@H](CO)Cc2ccc(O)c(OC)c2)ccc1O` [SECOISOLARICIRESINOL] cannot be ordered by Papp: less than 10 nm/s for the first, less than 10 nm/s for the second.

First: CNCCc1c[nH]c2ccc(O)cc12 [N-METHYLSEROTONIN]
Second: C[C@]12CC[C@@H]3c4ccc(O)cc4CC[C@H]3[C@@H]1C[C@@H](O)[C@@H]2O [ESTRIOL]
The Papp of the first is higher: 71 nm/s for the first, less than 10 nm/s for the second.

Going from `c1coc(CNc2ncnc3[nH]cnc23)c1` [KINETIN] to `O=C(O)Cc1ccc(O)c(O)c1` [DOPACETIC ACID], the Papp falls from 40 nm/s to less than 10 nm/s.

`O[C@@H]1[C@@H](O)[C@H](OC/C=C/c2ccccc2)O[C@H](CO[C@@H]2OC[C@H](O)[C@H](O)[C@H]2O)[C@H]1O` [ROSAVIN] and `O=c1c2cc(O)c(O)cc2oc2cc(O)c([C@@H]3O[C@H](CO)[C@@H](O)[C@H](O)[C@H]3O)c(O)c12` [MANGIFERIN] cannot be ordered by Papp: less than 10 nm/s for the first, less than 10 nm/s for the second.

`CC(=O)Nc1c2sscc-2n(C)c1=O` [THIOLUTIN] and `COC1=CC(=O)C=C(OC)C1=O` [2,6-DIMETHOXY-1,4-BENZOQUINONE] cannot be ordered by Papp: less than 10 nm/s for the first, less than 10 nm/s for the second.

same assay, conditions: PAMPA, PAMPA-BBB Pe, Table S2: compounds exhibiting moderate to high PAMPA-BBB permeability

Compared with `O=c1c(-c2ccc(O)cc2)coc2cc(O[C@@H]3O[C@H](CO)[C@@H](O)[C@H](O)[C@H]3O)cc(O)c12` [GENISTIN], `COc1ccc(-c2oc3cc(O[C@@H]4O[C@H](CO)[C@@H](O)[C@H](O)[C@H]4O)c(OC)c(O)c3c(=O)c2OC)cc1O` [CENTAUREIN] is higher in Papp: 290 nm/s for the first, 380 nm/s for the second.

Compared with `CC(=O)[C@@]1(O)CC[C@H]2[C@@H]3CCC4=CC(=O)CC[C@]4(C)[C@H]3CC[C@@]21C` [HYDROXYPROGESTERONE], `CC(C)(O)[C@H]1O[C@H]2CC[C@@]3(C)[C@@](O)(CC[C@H]4Cc5c([nH]c6ccccc56)[C@@]43C)C2=CC1=O` [PAXILLINE] is higher in Papp: 1100 nm/s for the first, 1610 nm/s for the second.

Compared with `COc1cc(CCC(C)=O)ccc1O` [ZINGERONE], `COc1cc(-c2oc3cc(O)ccc3c(=O)c2O)ccc1O` [GERALDOL] is higher in Papp: 230 nm/s for the first, 1240 nm/s for the second.

Going from `CN1CC[C@]23c4ccccc4N[C@H]1[C@]21CCN(C)[C@H]3Nc2ccccc21` [[…]] to `O=c1cc(N2CCOCC2)oc2c(-c3cccc4c3sc3ccccc34)cccc12`, the Papp rises from 230 nm/s to 1020 nm/s.

Compared with `Oc1ccc(C2=Cc3ccc(O)cc3OC2)cc1` [IDRONOXIL], `COc1ccc(-c2coc3cc(O)ccc3c2=O)cc1` [FORMONONETIN] is lower in Papp: 1450 nm/s for the first, 970 nm/s for the second.

First: O=Cc1ccco1 [FURFURAL]
Second: COC(=O)C=Cc1ccccc1 [METHYL CINNAMATE]
The Papp of the first is lower: 460 nm/s for the first, 980 nm/s for the second.

Compared with `Cc1ccc2c(c1)C(=O)c1ccccc1C2=O` [.BETA.-METHYLANTHRAQUINONE], `O=C(/C=C/c1ccccc1)c1ccc(O)cc1O` is higher in Papp: 260 nm/s for the first, 2230 nm/s for the second.

First: COC(=O)C1=CO[C@@H](C)[C@H]2CN3CCc4c([nH]c5ccccc45)[C@@H]3C[C@H]12 [RAUBASINE HYDROCHLORIDE]
Second: CN1C[C@H](CO)C=C2c3cccc4[nH]cc(c34)C[C@H]21 [LYSERGOL]
The Papp of the first is higher: 1250 nm/s for the first, 510 nm/s for the second.

Going from `CC1(C)O[C@@H]1COc1c2occc2cc2ccc(=O)oc12` [HERACLENIN] to `C/C(=C\COc1c2ccoc2cc2oc(=O)ccc12)CCC(O)C(C)(C)O` (stereo not drawn) [BERGAMOTTIN DIHYDROXYBERGAMOTTIN], the Papp falls from 2100 nm/s to 550 nm/s.

Compared with `COC1=CC(=O)O[C@@H](/C=C/c2ccc3c(c2)OCO3)C1` [METHYSTICIN], `C[C@H]1COC2=C1C(=O)C(=O)c1c2ccc2c1CCCC2(C)C` [[…]] is lower in Papp: 1040 nm/s for the first, 120 nm/s for the second.

Going from `CC1=CC(=O)C2=C(C)CC[C@@H]3[C@H](OC(=O)[C@H]3C)[C@@H]12` [LEUKOMISIN] to `O=C(/C=C/c1ccccc1)OCc1ccccc1` [BENZYL CINNAMATE], the Papp rises from 570 nm/s to greater than 4240 nm/s.

Reference: publication PMC11876671, “Investigating blood–brain barrier penetration and neurotoxicity of natural products for central nervous system drug development” (Scientific Reports, 2025)
